Measured values from paper PMC6934184, “Selective DNA-PKcs inhibition extends the therapeutic index of localized radiotherapy and chemotherapy” (The Journal of Clinical Investigation, 2019).

Biological target: T1, PTK2 (FAK) (Homo sapiens, UniProt Q05397)
T1 construct: purchased Thermo Fisher Scientific (Life Technologies) SelectScreen
Assay: SelectScreen Z'LYTE
Assay type: biochemical
Summary of the method: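 Percent values come from Thermo SelectScreen profiling of NU5455, combining activity and binding assays. CSF1R was run in Z'LYTE format at Km app ATP, and CAMK1 in Adapta format with ATP listed at 10.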

T1 sequence (Q05397 whole entry): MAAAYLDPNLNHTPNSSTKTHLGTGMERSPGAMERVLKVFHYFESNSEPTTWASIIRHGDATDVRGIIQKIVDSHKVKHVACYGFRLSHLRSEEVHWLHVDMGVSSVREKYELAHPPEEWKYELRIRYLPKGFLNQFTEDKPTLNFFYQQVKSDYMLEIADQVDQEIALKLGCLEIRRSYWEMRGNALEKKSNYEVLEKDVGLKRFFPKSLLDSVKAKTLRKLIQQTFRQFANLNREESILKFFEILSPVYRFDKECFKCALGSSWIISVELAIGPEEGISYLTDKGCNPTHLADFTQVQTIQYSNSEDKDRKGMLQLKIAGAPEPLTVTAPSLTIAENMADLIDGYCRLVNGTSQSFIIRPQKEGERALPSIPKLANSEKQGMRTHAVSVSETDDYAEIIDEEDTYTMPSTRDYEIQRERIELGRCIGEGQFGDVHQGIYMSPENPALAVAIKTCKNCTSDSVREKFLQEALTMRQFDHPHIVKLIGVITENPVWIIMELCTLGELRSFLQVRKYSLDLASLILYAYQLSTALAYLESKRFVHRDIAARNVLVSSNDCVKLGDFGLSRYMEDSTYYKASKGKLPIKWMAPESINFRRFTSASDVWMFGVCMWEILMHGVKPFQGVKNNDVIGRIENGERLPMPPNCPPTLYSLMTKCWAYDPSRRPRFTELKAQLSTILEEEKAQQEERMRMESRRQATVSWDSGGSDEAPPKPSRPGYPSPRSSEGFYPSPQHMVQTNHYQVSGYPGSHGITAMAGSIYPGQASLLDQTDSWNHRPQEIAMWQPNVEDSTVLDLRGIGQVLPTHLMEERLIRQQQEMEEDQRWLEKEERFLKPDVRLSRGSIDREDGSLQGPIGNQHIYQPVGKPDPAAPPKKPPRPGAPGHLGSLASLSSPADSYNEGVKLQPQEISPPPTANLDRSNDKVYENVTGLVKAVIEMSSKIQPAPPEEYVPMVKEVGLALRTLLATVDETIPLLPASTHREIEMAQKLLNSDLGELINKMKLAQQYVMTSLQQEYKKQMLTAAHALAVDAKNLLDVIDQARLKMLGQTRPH

CN(C(=O)CN1CCOCC1)c1ccc2sc3c(-c4cccc5c(=O)cc(N6CC7CCC(C6)O7)oc45)cccc3c2c1 [NU5455]
inhibition at 1 µM: 5.1%
